In PubChem BioAssay AID1259411 (Chemical Carcinogenesis Research Information System (CCRIS), 2018) one finds carcinogen call data, which are given here for five molecules.

For the data set, the system named is rodent carcinogenicity bioassays, tumor incidence. Put plainly: CCRIS carcinogenicity studies. The following applies: Dose: 0. The essentials:
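NCI-built, expert-reviewed records of carcinogenicity and related test outcomes (mutagenicity, tumor promotion/inhibition) compiled from published and report sources, historical span 1985-2011, not updated.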

Activity calls are given as the source filed them. How the calls were made is not given here.

As for `CCN(N=O)C(=O)NCCO`, the carcinogen call was “active; positive” (Species: RAT, Strain/Sex: F344/FEMALE, Route: INTRAVESICULAR, 3.6 MG 2/WK FOR 30 WK (STUDY DURATION: LIFETIME), Tumor Site: Type of Lesion: BLADDER: TUMOR, BRAIN: TUMOR); “active; positive” (Species: RAT, Strain/Sex: F344/FEMALE, Route: ORAL, 37, 74 MG/L IN DRINKING WATER 5 D/WK FOR 30 WK (STUDY DURATION: LIFETIME), 37, 74 MG/L IN DRINKING WATER 5 D/WK FOR 30 WK (STUDY DURATION: LIFETIME), Tumor Site: Type of Lesion: BLADDER: TUMOR, MAMMARY GLAND: TUMOR, UTERUS: TUMOR, NERVOUS SYSTEM: TUMOR, SKIN: TUMOR, MOUTH: TUMOR, Tumor Site: Type of Lesion: BLADDER: TUMOR, MAMMARY GLAND: TUMOR, UTERUS: TUMOR, NERVOUS SYSTEM: TUMOR, SKIN: TUMOR, MOUTH: TUMOR); “active; positive” (Species: RAT, Strain/Sex: F344/MALE, Route: GAVAGE, 3.6 MG IN 0.2 ML ETHYL ACETATE/CORN OIL (1:1) 2/WK FOR 31 WK (TOTAL DOSE: 223 MG) (STUDY DURATION: 80 WK), Tumor Site: Type of Lesion: LUNG: CARCINOMA, ADENOMA, BRAIN: TUMORS, THYROID: CARCINOMA OR ADENOMA, PERITONEUM: MESOTHELIOMA, ZYMBAL GLAND: CARCINOM, Tumor Site: Type of Lesion: LUNG: CARCINOMA, ADENOMA, BRAIN: TUMORS, THYROID: CARCINOMA OR ADENOMA, PERITONEUM: MESOTHELIOMA, ZYMBAL GLAND: CARCINOM); “active; positive” (Species: RAT, Strain/Sex: F344/MALE, Route: ORAL, 37, 74 MG/L IN DRINKING WATER 5 D/WK FOR 30 WK (STUDY DURATION: LIFETIME), 37, 74 MG/L IN DRINKING WATER 5 D/WK FOR 30 WK (STUDY DURATION: LIFETIME), Tumor Site: Type of Lesion: LUNG: TUMOR, BLADDER: TUMOR, MESOTHELIUM: TUMOR, NERVOUS SYSTEM: TUMOR, SKIN: TUMOR, Tumor Site: Type of Lesion: LUNG: TUMOR, BLADDER: TUMOR, MESOTHELIUM: TUMOR, NERVOUS SYSTEM: TUMOR, SKIN: TUMOR).
Take `N=C1C=CC(=C(c2ccc(N)cc2)c2ccc(N)cc2)C=C1`: the carcinogen call is, setting by setting: (Species: MOUSE, Strain/Sex: B6C3F1/FEMALE, Route: ORAL, 500, 1000 PPM IN DIET FOR 103 WK (STUDY DURATION: 110-113 WK), 500, 1000 PPM IN DIET FOR 103 WK (STUDY DURATION: 110-113 WK), Tumor Site: Type of Lesion: LUNG: ALVEOLAR/BRONCHIOLAR ADENOMA, ALVEOLAR/BRONCHIOLAR ADENOMA OR CARCINOMA;LIVER: HEPATOCELLULAR ADENOMA, HEPATOCELLU) “active; positive”; (Species: MOUSE, Strain/Sex: B6C3F1/MALE, Route: ORAL, 500, 1000 PPM IN DIET FOR 103 WK (STUDY DURATION: 113-115 WK), 500, 1000 PPM IN DIET FOR 103 WK (STUDY DURATION: 113-115 WK), Tumor Site: Type of Lesion: LIVER: HEPATOCELLULAR CARCINOMA, HEPATOCELLULAR ADENOMA OR CARCINOMA) “active; positive”; (Species: RAT, Strain/Sex: F344/FEMALE, Route: ORAL, 500, 1000 PPM IN DIET FOR 103 WK (STUDY DURATION: 110-113 WK), 500, 1000 PPM IN DIET FOR 103 WK (STUDY DURATION: 110-113 WK), Tumor Site: Type of Lesion: INTEGUMENTARY SYSTEM (SUBCUTANEOUS TISSUE): FIBROMA, FIBROMA OR FIBROSARCOMA, FIBROMA OR SARCOMA OR FIBROSARCOMA, MAMMAR) “active; positive”; (Species: RAT, Strain/Sex: F344/MALE, Route: ORAL, 1000, 2000 PPM IN DIET FOR 103 WK (STUDY DURATION: 110-113 WK), 1000, 2000 PPM IN DIET FOR 103 WK (STUDY DURATION: 110-113 WK), Tumor Site: Type of Lesion: INTEGUMENTARY SYSTEM (SKIN): SQUAMOUS CELL CARCINOMA, SQUAMOUS CELL PAPILLOMA OR CARCINOMA, TRICHOEPITHELIOMA, SEBACEOUS) “active; positive”; (Species: RAT, Strain/Sex: SPRAGUE-DAWLEY/FEMALE, Route: GAVAGE, 300 MG/KG BW 2/WK FOR 18 WK WITH A 1 WK REST AFTER 12 WK THEN STARTING AT 19 WK 150 MG/KG BW 2/WK FOR DURATION OF STU) “inactive; negative”; (Species: RAT, Strain/Sex: SPRAGUE-DAWLEY/MALE, Route: GAVAGE, 300 MG/KG BW 2/WK FOR 18 WK WITH A 1 WK REST AFTER 12 WK THEN STARTING AT 19 WK 150 MG/KG BW 2/WK FOR DURATION OF STU) “inactive; negative”.
`O=C(c1ccccc1)c1ccccc1`: the carcinogen call is, setting by setting: (Species: Mouse, Strain/Sex: B6C3F1/Female, Route: Oral, 312, 625, 1250 ppm in feed for 105 wks, 312, 625, 1250 ppm in feed for 105 wks, Tumor Site: Type of Lesion: Histiocytic sarcoma: (0/50, 0/50, 5/50, 3/50) Liver: Hepatocellular adenoma (5/50, 4/50, 10/50, 8/50)) “active; positive (ntp describes as some evidence); ntp describes results in liver as equ”; (Species: Mouse, Strain/Sex: B6C3F1/Male, Route: Oral, 312, 625, 1250 ppm in feed for 105 wks, 312, 625, 1250 ppm in feed for 105 wks, Tumor Site: Type of Lesion: Liver: Hepatocellular adenoma (11/50, 15/50, 23/50, 23/50), Hepatocellular adenoma, hepatocellular carcinoma, or hepatob) “active; positive (ntp describes as some evidence)”; (Species: Rat, Strain/Sex: F344/N/Female, Route: Oral, 312, 625, 1250 ppm in feed for 105 wks, 312, 625, 1250 ppm in feed for 105 wks, Tumor Site: Type of Lesion: Mononuclear cell leukemia: (19/50, 25/50, 30/50, 29/50) Histiocytic sarcoma: (0/50, 0/50, 1/50, 2/50) Mammary gland: fib) “equivocal; mononuclear cell leukemia and histiocytic sarcoma incidences describe”; (Species: Rat, Strain/Sex: F344/N/Male, Route: Oral, 312, 625, 1250 ppm in feed for 105 wks, 312, 625, 1250 ppm in feed for 105 wks, Tumor Site: Type of Lesion: Kidney: Renal tubule adenoma (1/50, 1/10, 2/50, 4/50), Mononuclear cell leukemia: (27/50, 41/50, 39/50, 24/50)) “active; positive trend for renal tubule adenoma (ntp describes as some evidence); mononu”.
`c1ccc2cc3c4ccccc4c4ccccc4c3cc2c1`: for the setting “Species: MOUSE, Strain/Sex: B6C3F1/MALE, Route: INTRAPERITONEAL, 400 NMOL IN 35 µL DMSO ON DAYS 1 (1/7 TOTAL DOSE), 8 (2/7 TOTAL DOSE), AND 15 (4/7 TOTAL DOSE) AFTER BIRTH (STUDY DUR”, the carcinogen call is “inactive; negative”.
Take `C=C(C)c1ccccc1`: the carcinogen call (Species: Mouse, Strain/Sex: B6C3F1/Female (50/group), Route: Inhalation, 100, 300, 600 ppm for 6 hr/d, 5 d/wk, except holidays, for 105 wk, 100, 300, 600 ppm for 6 hr/d, 5 d/wk, except holidays, for 105 wk, Tumor Site: Type of Lesion: Liver: hepatocelllular carcinoma (3/50, 9/50, 6/50, 18/50), hepatocellular adenoma and carcinoma combined (13/50, 26/50) was “active; positive (ntp reports as clear evidence)”; the carcinogen call (Species: Mouse, Strain/Sex: B6C3F1/Male (50/group), Route: Inhalation, 100, 300, 600 ppm for 6 hr/d, 5 d/wk, except holidays, for 105 wk, 100, 300, 600 ppm for 6 hr/d, 5 d/wk, except holidays, for 105 wk, Tumor Site: Type of Lesion: Liver: hepatocellular adenoma and carcinoma combined (28/50, 36/50, 33/50, 37/50 (considered equivocal))) is “inactive; negative; p value not significant (ntp reports as equivocal evidence)”; the carcinogen call (Species: Rat, Strain/Sex: F344/N / Female (50/group), Route: Inhalation, 100, 300, 1000 ppm for 6 hr/d, 5 d/wk, except holidays, for 105 wk, 100, 300, 1000 ppm for 6 hr/d, 5 d/wk, except holidays, for 105 wk) was “inactive; negative”; the carcinogen call (Species: Rat, Strain/Sex: F344/N / Male (50/group), Route: Inhalation, 100, 300, 1000 ppm for 6 hr/d, 5 d/wk, except holidays, for 105 wk, 100, 300, 1000 ppm for 6 hr/d, 5 d/wk, except holidays, for 105 wk, Tumor Site: Type of Lesion: Kidney: renal tubule adenoma and carcinoma combined (0/50, 0/50, 3/50, 7/50 (single and step sections)) Mononuclear cell) was “active; positive (ntp reports as some evidence)”.
